Data reported in patent US4029805A, “Semisynthetic penicillins” (Hoffmann-La Roche Inc., priority 1976, dated 1977).
Where two headings read alike, the source gives them in different places.

Key:
S. typhosa [1] = test: Curative dose against systemic S. typhosa infection; format: in vivo, mice; conditions: Mus musculus, sc, read-out: CD50 (the source's name)
D. pneumoniae = test: Curative dose against systemic D. pneumoniae infection; format: in vivo, mice; conditions: Streptococcus pneumoniae, in Mus musculus, read-out: CD50 (the source's name)
B. subtilis = test: Stability in aqueous solution at room temperature, microbiological assay using B. subtilis; conditions: in words
Experimental: To illustrate the relative stability of the compounds of this invention in aqueous solution at room temperature the sodium salts of the compounds were tested as 20% by weight aqueous solutions for activity by microbiological assay using B. subtilis as the test organism and compared to 10% and 20% aqueous solutions of amoxicillin sodium salt and 10% aqueous solution of the acetone derivative of amoxicillin.

K. pneumoniae = test: Curative dose against systemic K. pneumoniae infection; format: in vivo, mice; conditions: Klebsiella pneumoniae, in Mus musculus, read-out: CD50 (the source's name)
S. typhosa [2] = test: Curative dose against systemic S. typhosa infection; format: in vivo, mice; conditions: Mus musculus, po
Experimental: (§1) In order to illustrate the relative activity of the compounds of this invention as compared to amoxicillin, the compounds, represented by the acetaldehyde derivative, were tested orally against systemic bacterial infections of mice with the following results. The CD50 is the curative dose in 50% of the animals treated against a challenge organism.

E. coli [3] = test: Curative dose against systemic E. coli infection; format: in vivo, mice; conditions: Escherichia coli, in Mus musculus, po
Experimental: as §1

S. pyogenes = test: Curative dose against systemic S. pyogenes infection; format: in vivo, mice; conditions: Streptococcus pyogenes, in Mus musculus, read-out: CD50 (the source's name)
S. schottmuelleri = test: Curative dose against systemic S. schottmuelleri infection; format: in vivo, mice; conditions: Mus musculus
E. coli [4] = test: Curative dose against systemic E. coli infection; format: in vivo, mice; conditions: Escherichia coli, in Mus musculus, read-out: CD50 (the source's name)
S. aureus = test: Curative dose against systemic S. aureus infection; format: in vivo, mice; conditions: Staphylococcus aureus, in Mus musculus, read-out: CD50 (the source's name)
[5] = po, Table 3(b), po, acetaldehyde derivative comparison
[6] = po, benzaldehyde derivative comparison
[7] = po, butyraldehyde derivative comparison
[8] = po, hexaldehyde derivative comparison
[9] = po, propionaldehyde derivative comparison
[10] = sc, Table 3(b), sc, acetaldehyde derivative comparison
[11] = sc, benzaldehyde derivative comparison
[12] = sc, butyraldehyde derivative comparison
[13] = sc, hexaldehyde derivative comparison
[14] = sc, propionaldehyde derivative comparison
[15] = Table 3(b), acetaldehyde derivative comparison, read-out: CD50 (the source's name)
[16] = read-out: CD50, Table 2, PO, mice

SMILES: CC1(C)S[C@@H]2[C@H](NC(=O)[C@H](N)c3ccc(O)cc3)C(=O)N2[C@H]1C(=O)O [Amoxicillin, 6[(-)-alpha-amino-para-hydroxyphenylacetamido]-penicillanic acid]
- LD50 (in vivo; ip): 3460 mg/kg
- LD50 (in vivo; po): > 10000 mg/kg
- LD50 (in vivo; sc): 10000 mg/kg
- ED50 (S. typhosa [1]; Table 3(b), acetaldehyde derivative comparison): 6.3 mg/kg
- ED50 (S. typhosa [1]; benzaldehyde derivative comparison): 0.56 mg/kg
- ED50 (S. typhosa [1]; butyraldehyde derivative comparison): 1.3 mg/kg
- ED50 (S. typhosa [1]; hexaldehyde derivative comparison): 3.3 mg/kg
- ED50 (S. typhosa [1]; propionaldehyde derivative comparison): 2.8 mg/kg
- ED50 (D. pneumoniae; po, Table 2, PO, mice): 10 mg/kg
- ED50 (D. pneumoniae; [5]): 10 mg/kg
- ED50 (D. pneumoniae; [6]): < 0.2 mg/kg
- ED50 (D. pneumoniae; [7]): 2.7 mg/kg
- ED50 (D. pneumoniae; [8]): 0.75 mg/kg
- ED50 (D. pneumoniae; [9]): 1.1 mg/kg
- ED50 (D. pneumoniae; [10]): 0.53 mg/kg
- ED50 (D. pneumoniae; [11]): 0.14 mg/kg
- ED50 (D. pneumoniae; [12]): 3.2 mg/kg
- ED50 (D. pneumoniae; [13]): 0.07 mg/kg
- ED50 (D. pneumoniae; [14]): 0.19 mg/kg
- stability in solution (B. subtilis): very short stability in parenteral solutions
- ED50 (K. pneumoniae; po, Table 2, PO, mice): 10 mg/kg
- ED50 (K. pneumoniae; [5]): 10 mg/kg
- ED50 (K. pneumoniae; [6]): 75 mg/kg
- ED50 (K. pneumoniae; [7]): 58 mg/kg
- ED50 (K. pneumoniae; [8]): 59 mg/kg
- ED50 (K. pneumoniae; [9]): 16 mg/kg
- ED50 (K. pneumoniae; [10]): 12 mg/kg
- ED50 (K. pneumoniae; [11]): 100 mg/kg
- ED50 (K. pneumoniae; [12]): 22 mg/kg
- ED50 (K. pneumoniae; [13]): 48 mg/kg
- ED50 (K. pneumoniae; [14]): 17 mg/kg
- ED50 (S. typhosa [2]; [15]): 5 mg/kg
- ED50 (S. typhosa [2]; benzaldehyde derivative comparison, read-out: CD50 (the source's name)): 1.3 mg/kg
- ED50 (S. typhosa [2]; butyraldehyde derivative comparison, read-out: CD50 (the source's name)): 3.3 mg/kg
- ED50 (S. typhosa [2]; hexaldehyde derivative comparison, read-out: CD50 (the source's name)): 3.7 mg/kg
- ED50 (S. typhosa [2]; propionaldehyde derivative comparison, read-out: CD50 (the source's name)): 3.8 mg/kg
- ED50 (S. typhosa [2]; [16]): 5.4 mg/kg
- ED50 (E. coli [3]; [15]): 6.4 mg/kg
- ED50 (E. coli [3]; [16]): 6.4 mg/kg
- ED50 (S. pyogenes; po, Table 2, PO, mice): 1.5 mg/kg
- ED50 (S. pyogenes; [5]): 1.5 mg/kg
- ED50 (S. pyogenes; [6]): 0.82 mg/kg
- ED50 (S. pyogenes; [7]): 0.08 mg/kg
- ED50 (S. pyogenes; [8]): 0.3 mg/kg
- ED50 (S. pyogenes; [9]): 0.16 mg/kg
- ED50 (S. pyogenes; [10]): < 0.05 mg/kg
- ED50 (S. pyogenes; [11]): 0.31 mg/kg
- ED50 (S. pyogenes; [12]): < 0.01 mg/kg
- ED50 (S. pyogenes; [13]): 0.11 mg/kg
- ED50 (S. pyogenes; [14]): 0.07 mg/kg
- ED50 (S. schottmuelleri; po, Table 3(b), po, acetaldehyde derivative comparison, read-out: CD50 (the source's name)): 5.3 mg/kg
- ED50 (S. schottmuelleri; po, benzaldehyde derivative comparison, read-out: CD50 (the source's name)): 5.5 mg/kg
- ED50 (S. schottmuelleri; po, butyraldehyde derivative comparison, read-out: CD50 (the source's name)): 5.9 mg/kg
- ED50 (S. schottmuelleri; po, hexaldehyde derivative comparison, read-out: CD50 (the source's name)): 4.4 mg/kg
- ED50 (S. schottmuelleri; po, propionaldehyde derivative comparison, read-out: CD50 (the source's name)): 5.7 mg/kg
- ED50 (S. schottmuelleri; po, read-out: CD50, Table 2, PO, mice): 5.3 mg/kg
- ED50 (S. schottmuelleri; sc, Table 3(b), sc, acetaldehyde derivative comparison, read-out: CD50 (the source's name)): 6.5 mg/kg
- ED50 (S. schottmuelleri; sc, benzaldehyde derivative comparison, read-out: CD50 (the source's name)): 6.7 mg/kg
- ED50 (S. schottmuelleri; sc, butyraldehyde derivative comparison, read-out: CD50 (the source's name)): 2.3 mg/kg
- ED50 (S. schottmuelleri; sc, hexaldehyde derivative comparison, read-out: CD50 (the source's name)): 1 mg/kg
- ED50 (S. schottmuelleri; sc, propionaldehyde derivative comparison, read-out: CD50 (the source's name)): 6.1 mg/kg
- ED50 (E. coli [4]; [6]): 16 mg/kg
- ED50 (E. coli [4]; [7]): 15 mg/kg
- ED50 (E. coli [4]; [8]): 10 mg/kg
- ED50 (E. coli [4]; [9]): 11 mg/kg
- ED50 (E. coli [4]; [10]): 10 mg/kg
- ED50 (E. coli [4]; [11]): 5.9 mg/kg
- ED50 (E. coli [4]; [12]): 6 mg/kg
- ED50 (E. coli [4]; [13]): 2.5 mg/kg
- ED50 (E. coli [4]; [14]): 3.4 mg/kg
- ED50 (S. aureus; po, Table 2, PO, mice): 1.2 mg/kg
- ED50 (S. aureus; [5]): 1.2 mg/kg
- ED50 (S. aureus; [6]): 4 mg/kg
- ED50 (S. aureus; [7]): 0.29 mg/kg
- ED50 (S. aureus; [8]): 0.72 mg/kg
- ED50 (S. aureus; [9]): 0.41 mg/kg
- ED50 (S. aureus; [10]): 2 mg/kg
- ED50 (S. aureus; [11]): 0.16 mg/kg
- ED50 (S. aureus; [12]): 0.5 mg/kg
- ED50 (S. aureus; [13]): 0.79 mg/kg
- ED50 (S. aureus; [14]): 0.47 mg/kg
